For data set [1] the following is noted: Liquid; for mass density: 101.33 kPa, Pycnometric method.
Data set [2] in a line: refractive index (Na D-line) (dimensionless). To be noted: 101.33 kPa, Liquid, Standard Abbe refractometry.

These results are taken from the NIST ThermoML archive (doi:10.1021/je300810p).

Numbers after ± are expanded uncertainties.

The mass density is the mass of a sample divided by its volume. One may read the vapor or sublimation pressure as the equilibrium pressure above the liquid or solid. As usually defined, the refractive index is the speed of light in vacuum divided by its phase velocity in the sample. In the case of `CC=O` [ethanal], the mass density in data set [1] (289.15 K) amounted to 788.02 ± 0.36 kg/m3. In addition, in data set [1] (293.91 K), the “vapor or sublimation pressure” value is recorded as 101.33 ± 2.6 kPa. The refractive index in data set [2] (293.15 K) was 1.3328 ± 0.0025.

As to `CCO` [ethanol], the mass density in data set [1] (298.15 K) stood at 784.88 ± 0.36 kg/m3. The “vapor or sublimation pressure” value in data set [1] (351.46 K) is reported as 101.33 ± 2.6 kPa. For the same compound, the refractive index in data set [2] (298.15 K) turned out to be 1.3592 ± 0.0025.

On to `CC(=O)O` [acetic acid], for which the mass density in data set [1] (298.15 K) was found to be 1049.42 ± 0.45 kg/m3. Also, the “vapor or sublimation pressure” value in data set [1] (391.43 K) was determined as 101.33 ± 3.4 kPa. In addition, the refractive index in data set [2] (298.15 K) amounted to 1.3716 ± 0.0025.
